Results: BindingDB's records for doi:10.1016/j.bmcl.2006.01.056 (Bristol-Myers Squibb, 2006)

Biological target: T1, Kinesin-like protein KIF11 (Homo sapiens, UniProt P52732)
T1 sequence (P52732 whole entry): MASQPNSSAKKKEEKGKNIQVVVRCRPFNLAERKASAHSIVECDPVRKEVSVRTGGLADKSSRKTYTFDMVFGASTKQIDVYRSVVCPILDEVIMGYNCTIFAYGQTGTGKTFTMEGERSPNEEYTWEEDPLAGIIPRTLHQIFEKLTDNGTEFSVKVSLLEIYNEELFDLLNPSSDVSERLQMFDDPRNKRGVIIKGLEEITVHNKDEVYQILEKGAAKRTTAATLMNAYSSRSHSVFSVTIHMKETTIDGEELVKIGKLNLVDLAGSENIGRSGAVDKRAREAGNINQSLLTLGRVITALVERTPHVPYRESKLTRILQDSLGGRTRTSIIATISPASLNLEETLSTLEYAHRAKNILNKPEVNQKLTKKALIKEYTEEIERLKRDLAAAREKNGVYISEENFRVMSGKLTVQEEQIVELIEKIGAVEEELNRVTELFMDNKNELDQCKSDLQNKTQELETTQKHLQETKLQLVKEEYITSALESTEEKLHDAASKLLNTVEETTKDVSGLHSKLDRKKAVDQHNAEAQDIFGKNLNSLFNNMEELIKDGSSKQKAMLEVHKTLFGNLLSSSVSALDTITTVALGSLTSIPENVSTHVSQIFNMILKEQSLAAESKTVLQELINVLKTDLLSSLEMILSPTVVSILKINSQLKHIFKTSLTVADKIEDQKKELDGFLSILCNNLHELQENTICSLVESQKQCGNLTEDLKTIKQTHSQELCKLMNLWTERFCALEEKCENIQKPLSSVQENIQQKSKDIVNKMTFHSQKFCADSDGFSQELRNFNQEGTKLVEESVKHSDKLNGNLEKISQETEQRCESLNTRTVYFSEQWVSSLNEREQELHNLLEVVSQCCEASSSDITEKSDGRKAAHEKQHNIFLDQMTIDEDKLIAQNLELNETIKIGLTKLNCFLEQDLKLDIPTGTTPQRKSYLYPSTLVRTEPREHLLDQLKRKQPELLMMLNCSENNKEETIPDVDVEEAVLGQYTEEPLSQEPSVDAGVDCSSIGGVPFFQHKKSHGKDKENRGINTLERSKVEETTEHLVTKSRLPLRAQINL
Test: Microtubule-Activated Eg5 ATPase Assay
Protocol: ATPase assays with Eg5 motor domain protein were performed using Kinase-Glo Luminescent Kit as described by the manufacturer (Promega).

IC50: 477 nM
Structure (SMILES): CN(C)C(=O)N1Cc2c(ccc3ccccc23)C(c2cccc(O)c2)C1 (stereo unspecified) [6-(3-hydroxyphenyl)-N,N-dimethyl-4-azatricyclo[8.4.0.0^{2,7}]tetradeca-1(10),2(7),8,11,13-pentaene-4-carboxamide]
